One test relates to ShHTL7S95A. In words: Hydrolysis reaction analysis with ShHTL7 S95A mutant. The test is classed as biochemical, Striga hermonthica. The following applies: Supplementary Figs. 20a, 24a. As for the experimental part: Compounds 4a, (R)- and (S)-4a, 4g-i, and rac-GR24 were dissolved in DMSO and prepared as stock solution ([…]) just before use. A 200 μL of the reaction solution consisting of PBS buffer (pH 7.3), 10 μM samples, and 10 μg recombinant ShHTL7 or its mutants was incubated at 30 °C for 30 min; with the reaction solution (200 μL) containing PBS buffer (pH 7.3) and 10 μM samples as the blank control[40],[52]. Subsequently, the reaction was terminated by adding 200 μL of methanol, and then the reaction mixture was shaken for 10 s and centrifuged at 5310 × g for 60 s. The supernatant was filtered and the remaining amount of samples was analyzed by HPLC. The relative percentages of hydrolysis were obtained by using the amount of compounds in blank control as reference.
Supplementary Fig. 20. Effect of key amino acid residues on the hydrolysis of ShHTL7 and binding affinity. a, Relative percentage of hydrolysis of compound (S)-4a by ShHTL7S95A, ShHTL7H246A, and ShHTL7. The error bar indicates SD (n = 3 biologically independent experiments). b, Competitive mutants of ShHTL7 inhibitory activity in YLG assay. Data are the means ± SD (n = 3 biologically independent experiments).
(1 picture or pasted object on this page, not shown here) […]

A further test deals with ShHTL7 M219A (Striga hermonthica, UniProt A0A0M3PNA2, M219A). In words: YLG competitive inhibition, ShHTL7 mutant M219A. The test is classed as biochemical. From the text:
(§1) To clarify the dynamics of how the catalytic triad affects hydrolysis by ShHTL7, we performed MD simulations to study the differences between (R)-4a and (S)-4a (Supplementary Fig. 21). […] To further characterize our computational models, we performed mutation studies of the key residues in the active pockets that may have interactions with our molecules. Indeed, a number of the mutations of specific residues altered the IC50 values, supporting our simulated models (Supplementary Fig. 20b).
(§2) The excitation and emission wavelengths of YLG are 480 and 520 nm, respectively. We used a fluorescence spectrophotometer (CARY Eclipse) to detect the fluorescence intensity change of YLG during the enzymatic hydrolysis assay process. All the testing compounds and YLG were dissolved in DMSO and prepared as stock solutions just before use. […] The changes of fluorescence at 520 nm of each well were recorded every 1 min for 30 min. Using the reaction mixture without adding enzyme and tested compounds as the background control. After subtracting the background hydrolysis, a linear fluorescence increase in 8 min was used for further inspection. The IC50 values were determined via fitting relative inhibition percentages with the varying concentrations of compounds in Microsoft Excel.
(§3) Supplementary Fig. 20. […]

The next test has as its target ShHTL7 T190G (Striga hermonthica, UniProt A0A0M3PNA2, T190G). In words: YLG competitive inhibition, ShHTL7 mutant T190G. The test is classed as biochemical.
Description: as §1, §2, §3

The target in another test is ShHTL7 F134A (Striga hermonthica, UniProt A0A0M3PNA2, F134A). The test can be described thus: YLG competitive inhibition, ShHTL7 mutant F134A. The test is classed as biochemical.
Chain of ShHTL7 F134A (A0A0M3PNA2 whole entry F134A): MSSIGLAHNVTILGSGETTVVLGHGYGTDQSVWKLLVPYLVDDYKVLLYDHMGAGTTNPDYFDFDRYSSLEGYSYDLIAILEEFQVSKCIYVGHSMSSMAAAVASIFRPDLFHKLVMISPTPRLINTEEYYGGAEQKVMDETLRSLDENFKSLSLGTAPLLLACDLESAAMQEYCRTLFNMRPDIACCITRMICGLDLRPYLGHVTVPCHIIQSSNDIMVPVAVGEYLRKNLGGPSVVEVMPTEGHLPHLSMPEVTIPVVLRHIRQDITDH
Description: as §1, §2, §3

The next test deals with ShHTL7 T157A (Striga hermonthica, UniProt A0A0M3PNA2, T157A). The test can be described thus: YLG competitive inhibition, ShHTL7 mutant T157A. The test is classed as biochemical.
Chain of ShHTL7 T157A (A0A0M3PNA2 whole entry T157A): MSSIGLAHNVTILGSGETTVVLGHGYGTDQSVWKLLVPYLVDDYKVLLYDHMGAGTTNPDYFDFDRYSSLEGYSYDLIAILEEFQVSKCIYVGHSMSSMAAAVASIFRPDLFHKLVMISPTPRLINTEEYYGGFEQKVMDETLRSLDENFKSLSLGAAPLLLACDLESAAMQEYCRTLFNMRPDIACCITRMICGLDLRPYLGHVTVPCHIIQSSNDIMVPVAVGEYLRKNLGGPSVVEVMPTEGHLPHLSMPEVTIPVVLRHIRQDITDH
Description: as §1, §2, §3

A further test addresses ShHTL7 F134K (Striga hermonthica, UniProt A0A0M3PNA2, F134K). In words: YLG competitive inhibition, ShHTL7 mutant F134K. The test is classed as biochemical.
Description: as §1, §2, §3

The target of the next test is ShHTL7 T142K (Striga hermonthica, UniProt A0A0M3PNA2, T142K). The test can be described thus: YLG competitive inhibition, ShHTL7 mutant T142K. The test is classed as biochemical.
Chain of ShHTL7 T142K (A0A0M3PNA2 whole entry T142K): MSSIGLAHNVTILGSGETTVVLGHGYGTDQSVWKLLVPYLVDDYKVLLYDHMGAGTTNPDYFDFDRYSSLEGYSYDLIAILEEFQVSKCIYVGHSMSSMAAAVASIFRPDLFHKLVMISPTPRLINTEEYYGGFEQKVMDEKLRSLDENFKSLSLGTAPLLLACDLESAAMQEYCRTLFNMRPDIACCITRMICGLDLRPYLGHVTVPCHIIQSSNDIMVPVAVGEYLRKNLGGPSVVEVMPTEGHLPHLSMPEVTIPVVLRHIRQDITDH
Description: as §1, §2, §3

Another test deals with ShHTL7 T142L (Striga hermonthica, UniProt A0A0M3PNA2, T142L). In words: YLG competitive inhibition, ShHTL7 mutant T142L. The test is classed as biochemical.
Chain of ShHTL7 T142L (A0A0M3PNA2 whole entry T142L): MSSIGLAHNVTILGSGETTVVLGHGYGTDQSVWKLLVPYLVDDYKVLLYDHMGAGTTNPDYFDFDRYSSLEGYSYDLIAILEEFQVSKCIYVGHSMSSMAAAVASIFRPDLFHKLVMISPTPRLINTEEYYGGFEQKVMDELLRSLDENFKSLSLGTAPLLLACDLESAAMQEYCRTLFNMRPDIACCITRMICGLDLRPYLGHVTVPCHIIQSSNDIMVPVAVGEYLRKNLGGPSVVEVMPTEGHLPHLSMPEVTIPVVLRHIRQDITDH
Description: as §1, §2, §3

The target in the next test is ShHTL7 L161A (Striga hermonthica, UniProt A0A0M3PNA2, L161A). In words: YLG competitive inhibition, ShHTL7 mutant L161A. The test is classed as biochemical.
Chain of ShHTL7 L161A (A0A0M3PNA2 whole entry L161A): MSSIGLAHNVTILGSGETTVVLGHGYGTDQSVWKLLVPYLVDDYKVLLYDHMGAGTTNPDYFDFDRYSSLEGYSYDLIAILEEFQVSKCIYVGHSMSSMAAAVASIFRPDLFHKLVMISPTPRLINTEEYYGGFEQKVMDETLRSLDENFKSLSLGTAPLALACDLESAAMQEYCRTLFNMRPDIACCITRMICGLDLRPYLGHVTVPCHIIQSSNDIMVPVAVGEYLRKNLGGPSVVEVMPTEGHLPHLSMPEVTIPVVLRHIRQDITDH
Description: as §1, §2, §3

The next test deals with ShHTL7 T121S (Striga hermonthica, UniProt A0A0M3PNA2, T121S). In words: YLG competitive inhibition, ShHTL7 mutant T121S. The test is classed as biochemical.
Chain of ShHTL7 T121S (A0A0M3PNA2 whole entry T121S): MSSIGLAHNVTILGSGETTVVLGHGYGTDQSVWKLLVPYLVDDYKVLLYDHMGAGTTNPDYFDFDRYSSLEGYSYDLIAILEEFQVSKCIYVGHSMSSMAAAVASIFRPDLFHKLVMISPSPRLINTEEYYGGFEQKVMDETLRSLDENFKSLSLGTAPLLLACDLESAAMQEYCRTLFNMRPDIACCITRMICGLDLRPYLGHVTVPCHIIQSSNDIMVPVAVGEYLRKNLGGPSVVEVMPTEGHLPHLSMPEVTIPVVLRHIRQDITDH
Description: as §1, §2, §3

The target in the next test is ShHTL7 T124K (Striga hermonthica, UniProt A0A0M3PNA2). The test can be described thus: YLG competitive inhibition, ShHTL7 mutant T124K. The test is classed as biochemical. Conditions: read-out: IC50 (YLG), ShHTL7 mutant, source data average, Supplementary Fig. 20b.
Chain of ShHTL7 T124K (A0A0M3PNA2 entry or part of it, stated change not applied): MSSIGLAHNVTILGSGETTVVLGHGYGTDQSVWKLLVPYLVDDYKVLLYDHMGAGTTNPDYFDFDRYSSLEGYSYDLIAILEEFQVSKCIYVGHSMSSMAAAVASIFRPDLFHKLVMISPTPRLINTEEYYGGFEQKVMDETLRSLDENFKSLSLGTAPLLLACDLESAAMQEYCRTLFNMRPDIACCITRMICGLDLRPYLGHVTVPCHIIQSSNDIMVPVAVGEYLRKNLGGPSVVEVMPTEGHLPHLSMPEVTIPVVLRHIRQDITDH
Description: as §1, §2, §3

The next test concerns the target ShHTL7 S95C (Striga hermonthica, UniProt A0A0M3PNA2, S95C). In words: YLG competitive inhibition, ShHTL7 mutant S95C. The test is classed as biochemical.
Description: as §1, §2, §3

Another test addresses ShHTL7 L161M (Striga hermonthica, UniProt A0A0M3PNA2, L161M). The test can be described thus: YLG competitive inhibition, ShHTL7 mutant L161M. It is filed as biochemical.
Description: as §1, §2, §3

Another test has as its target ShHTL7 T190F (Striga hermonthica, UniProt A0A0M3PNA2, T190F). The test can be described thus: YLG competitive inhibition, ShHTL7 mutant T190F. The test is classed as biochemical.
Description: as §1, §2, §3

The next test addresses ShHTL7 M219V (Striga hermonthica, UniProt A0A0M3PNA2, M219V). The test can be described thus: YLG competitive inhibition, ShHTL7 mutant M219V. The test is classed as biochemical.
Description: as §1, §2, §3

The record followed here is article PMC9271048, “Probing strigolactone perception mechanisms with rationally designed small-molecule agonists stimulating germination of root parasitic weeds” (Nature Communications, 2022).

In general, IC50 refers to the midpoint of a concentration-inhibition curve.

Bounds are passed on as bounds.

Chain of ShHTL7 F134K (A0A0M3PNA2 whole entry F134K): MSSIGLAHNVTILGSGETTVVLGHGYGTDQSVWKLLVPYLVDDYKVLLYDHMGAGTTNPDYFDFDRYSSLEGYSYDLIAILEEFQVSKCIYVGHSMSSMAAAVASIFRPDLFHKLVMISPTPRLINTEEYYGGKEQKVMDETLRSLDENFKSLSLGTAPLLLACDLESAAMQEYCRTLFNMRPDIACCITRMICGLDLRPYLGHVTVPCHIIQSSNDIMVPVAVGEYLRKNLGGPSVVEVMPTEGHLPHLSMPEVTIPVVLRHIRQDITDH
Chain of ShHTL7 M219A (A0A0M3PNA2 whole entry M219A): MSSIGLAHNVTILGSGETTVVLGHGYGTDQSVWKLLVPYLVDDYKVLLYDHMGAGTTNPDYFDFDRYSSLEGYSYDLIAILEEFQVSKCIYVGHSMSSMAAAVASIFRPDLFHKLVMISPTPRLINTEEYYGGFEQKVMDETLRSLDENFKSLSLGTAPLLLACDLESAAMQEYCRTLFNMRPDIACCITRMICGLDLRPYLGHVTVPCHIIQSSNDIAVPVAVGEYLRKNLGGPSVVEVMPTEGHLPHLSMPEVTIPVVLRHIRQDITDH
Chain of ShHTL7 S95C (A0A0M3PNA2 whole entry S95C): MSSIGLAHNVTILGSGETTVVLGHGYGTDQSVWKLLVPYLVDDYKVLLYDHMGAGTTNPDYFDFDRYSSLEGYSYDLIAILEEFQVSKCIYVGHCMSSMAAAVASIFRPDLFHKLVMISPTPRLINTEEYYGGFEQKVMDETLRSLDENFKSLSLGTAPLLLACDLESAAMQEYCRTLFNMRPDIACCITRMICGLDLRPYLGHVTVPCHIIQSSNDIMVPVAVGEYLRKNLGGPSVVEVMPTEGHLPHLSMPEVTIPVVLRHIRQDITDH
Chain of ShHTL7 M219V (A0A0M3PNA2 whole entry M219V): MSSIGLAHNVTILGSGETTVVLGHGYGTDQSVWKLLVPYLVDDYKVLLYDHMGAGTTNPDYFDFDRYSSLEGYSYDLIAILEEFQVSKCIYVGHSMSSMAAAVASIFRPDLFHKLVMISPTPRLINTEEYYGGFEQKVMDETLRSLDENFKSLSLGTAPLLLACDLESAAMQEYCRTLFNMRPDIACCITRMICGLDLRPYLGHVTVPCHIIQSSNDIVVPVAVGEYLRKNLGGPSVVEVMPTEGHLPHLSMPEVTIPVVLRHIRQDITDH
Chain of ShHTL7 T190F (A0A0M3PNA2 whole entry T190F): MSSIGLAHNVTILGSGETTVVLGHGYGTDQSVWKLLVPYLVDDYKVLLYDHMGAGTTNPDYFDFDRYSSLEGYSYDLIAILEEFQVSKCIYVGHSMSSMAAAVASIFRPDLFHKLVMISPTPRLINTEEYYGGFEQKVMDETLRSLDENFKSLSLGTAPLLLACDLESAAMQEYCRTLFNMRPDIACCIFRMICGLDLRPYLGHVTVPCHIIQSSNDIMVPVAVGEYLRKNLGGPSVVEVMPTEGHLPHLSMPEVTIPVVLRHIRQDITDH
Chain of ShHTL7 T190G (A0A0M3PNA2 whole entry T190G): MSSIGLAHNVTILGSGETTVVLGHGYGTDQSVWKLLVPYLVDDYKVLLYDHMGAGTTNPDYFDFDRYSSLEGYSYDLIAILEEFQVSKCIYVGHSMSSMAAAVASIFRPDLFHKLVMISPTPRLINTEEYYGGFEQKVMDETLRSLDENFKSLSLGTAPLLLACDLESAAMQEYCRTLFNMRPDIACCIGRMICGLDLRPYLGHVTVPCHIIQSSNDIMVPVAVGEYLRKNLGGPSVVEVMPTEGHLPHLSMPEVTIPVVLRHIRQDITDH
Chain of ShHTL7 L161M (A0A0M3PNA2 whole entry L161M): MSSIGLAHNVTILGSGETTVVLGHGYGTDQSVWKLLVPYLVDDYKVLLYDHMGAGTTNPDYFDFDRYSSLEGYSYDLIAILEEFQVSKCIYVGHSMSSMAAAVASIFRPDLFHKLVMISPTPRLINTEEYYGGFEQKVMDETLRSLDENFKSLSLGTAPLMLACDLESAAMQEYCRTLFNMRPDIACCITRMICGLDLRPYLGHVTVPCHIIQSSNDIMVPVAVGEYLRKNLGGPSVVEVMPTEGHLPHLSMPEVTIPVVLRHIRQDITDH

As to `CC1=CC(OC(=O)N2CCN(C(=O)COc3ccc(Br)cc3C)CC2)CC1=O` (stereo not drawn) [4g], the “relative percentage of hydrolysis by ShHTL7S95A, source data average” value in the test with ShHTL7S95A is given as 3.871%.

Consider `CC1=C[C@H](OC(=O)N2CCN(C(=O)COc3ccc(Br)cc3C)CC2)OC1=O` [(S)-4a], for which the IC50 at ShHTL7 M219A was found to be 6.53 µM; on ShHTL7 T190G it was 0.575 µM; on ShHTL7 F134A, 0.531 µM; on ShHTL7 T157A it was 0.17 µM; on ShHTL7 F134K it was 0.613 µM; at ShHTL7 T142K, 0.203 µM. Also, the half-maximal inhibitory concentration (IC50) on ShHTL7 T142L stood at 0.3 µM; on ShHTL7 L161A, 0.155 µM; at ShHTL7 T121S it was 0.8 µM; on ShHTL7 T124K, 0.435 µM; on ShHTL7 S95C, 0.293 µM; on ShHTL7 L161M, 0.666 µM. The IC50 on ShHTL7 T190F is 1.07 µM; at ShHTL7 M219V, 0.347 µM. In the test on ShHTL7S95A, the “relative percentage of hydrolysis by ShHTL7S95A, source data average” value is given as 1.485%.

For `CC1=C[C@@H](OC(=O)N2CCN(C(=O)COc3ccc(Br)cc3C)CC2)OC1=O` [(R)-4a], the IC50 is greater than 100 µM on ShHTL7 M219A; 26.4 µM at ShHTL7 T190G; 58.1 µM at ShHTL7 F134A; 2.61 µM at ShHTL7 T157A; 62.1 µM at ShHTL7 F134K; 4.13 µM on ShHTL7 T142K. For the same molecule, the IC50 at ShHTL7 T142L was found to be 1.88 µM; on ShHTL7 L161A it was 100 µM; on ShHTL7 T121S, 4.9 µM; on ShHTL7 T124K, 1 µM; on ShHTL7 S95C it was 43.7 µM; at ShHTL7 L161M, 34.3 µM. Also, the IC50 is 4.69 µM on ShHTL7 T190F and 22 µM on ShHTL7 M219V.
